Results from ChEMBL document CHEMBL5137017, “Identification of NVP-CLR457 as an Orally Bioavailable Non-CNS-Penetrant pan-Class IA Phosphoinositol-3-Kinase Inhibitor” (J Med Chem, 2022).
In brackets after ≈: the same amount, converted by molar mass.

Key:
[1] = Inhibition of wild type PI3K in human HCC1806 cells assessed as reduction in phosphorylation of AKT at Ser473 residue by Western blot analysis; assay type: cell-based
[2] = Dose normalized Cmax in Sprague-Dawley rat at 100 mg/kg, po measured upto 24 hrs by LC-MS/MS analysis; assay type: ADME, organism-based; settings: in vivo
[3] = Cmax in OF1 mouse at 10 mg/kg,po or 3 mg/kg,iv measured upto 24 hrs by LC-MS/MS analysis; assay type: ADME, organism-based; design: time < 24 hrs, dose 10 mg/kg, route po; settings: in vivo
[4] = Dose normalized Cmax in beagle dog at 3 mg/kg, po measured upto 24 hrs by LC-MS/MS analysis; assay type: ADME, organism-based, Canis lupus familiaris; settings: in vivo
[5] = Dose normalized AUC in Sprague-Dawley rat at 100 mg/kg, po measured upto 24 hrs by LC-MS/MS analysis; assay type: ADME, organism-based; settings: in vivo
[6] = Inhibition of wild type PI3K in human CAL-85-1 cells assessed as reduction in phosphorylation of AKT at Ser473 residue by Western blot analysis; assay type: cell-based
[7] = Cmax in athymic nude mouse xenografted with rat Rat1 cells expressing myr-p110alpha at 40 mg/kg, po measured after 8 days by LC-MS/MS analysis; assay type: ADME, organism-based; design: dose 40 mg/kg, time 8 day, route po; settings: in vivo
[8] = AUC(0 to Tlast) in athymic nude mouse xenografted with rat Rat1 cells expressing myr-p110alpha at 3 mg/kg, po measured after 8 days by LC-MS/MS analysis; assay type: ADME, organism-based; design: time 8 day, dose 3 mg/kg, route po; settings: in vivo
[9] = Volume of distribution at steady state in Sprague-Dawley rat at 3 mg/kg, po or iv measured upto 24 hrs by LC-MS/MS analysis; assay type: ADME, organism-based; settings: in vivo
[10] = Dose normalized AUC in Sprague-Dawley rat at 3 mg/kg, po measured upto 24 hrs by LC-MS/MS analysis; assay type: ADME, organism-based; settings: in vivo
[11] = Tmax in Beagle dog at 5.4 mg/kg, po measured upto 24 hrs using PVP-ASD form of sample by LC-MS/MS analysis; assay type: ADME, organism-based, Canis lupus familiaris; settings: in vivo
Rat1 [12] = assay: Antitumor activity at rat Rat1 cells expressing myr-p110delta xenografted in athymic nude mouse assessed as T/C ratio at 20 mg/kg, po bid measured after 7 to 15 days; assay type: functional; settings: time 7-15 day
[13] = Minimal apparent permeability across apical to basolateral side in human Caco-2 cells at 0.25 to 30 uM measured after 120 mins by LC-MS/MS analysis; assay type: ADME, cell-based; settings: dose 0.25-30 µM
[14] = Tlast in athymic nude mouse xenografted with rat Rat1 cells expressing myr-p110alpha at 3 mg/kg, po measured after 8 days by LC-MS/MS analysis; assay type: ADME, organism-based; settings: in vivo, 192 h, time 8 day
[15] = Oral bioavailability in beagle dog at 0.3 mg/kg measured upto 24 hrs by LC-MS/MS analysis; assay type: ADME, organism-based, Canis lupus familiaris; settings: in vivo
[16] = Cmax in Beagle dog at 6 mg/kg, po measured upto 24 hrs using crystalline form of sample by LC-MS/MS analysis; assay type: ADME, organism-based, Canis lupus familiaris; design: dose 6 mg/kg, time < 24 hrs, route po; settings: in vivo
cells = settings: Rattus norvegicus, Rat1, 1 h
[17] = Dose normalized Cmax in Sprague-Dawley rat at 3 mg/kg, po measured upto 24 hrs by LC-MS/MS analysis; assay type: ADME, organism-based; settings: in vivo
[18] = Solubility of compound in FaSSIF at pH 5.8 measured upto 120 mins by HPLC analysis; assay type: physicochemical
[19] = Half life in Beagle dog at 6 mg/kg, po measured upto 24 hrs using crystalline form of sample by LC-MS/MS analysis; assay type: ADME, organism-based, Canis lupus familiaris; settings: in vivo
[20] = AUC(0 to Tlast) in athymic nude mouse xenografted with rat Rat1 cells expressing myr-p110alpha at 40 mg/kg, po measured after 8 days by LC-MS/MS analysis; assay type: ADME, organism-based; design: time 8 day, dose 40 mg/kg, route po; settings: in vivo
[21] = Dose normalized AUC in OF1 mouse plasma at 10 mg/kg, po measured upto 24 hrs by LC-MS/MS analysis; assay type: ADME, organism-based; settings: in vivo
[22] = Aqueous solubility of compound in buffer at pH 6.8 by HPLC analysis; assay type: physicochemical
[23] = Tlast in athymic nude mouse xenografted with rat Rat1 cells expressing myr-p110alpha at 10 mg/kg, po measured after 8 days by LC-MS/MS analysis; assay type: ADME, organism-based; settings: in vivo, 192 h, time 8 day
[24] = Cmax in beagle dog at 0.3 mg/kg,po or 0.1 mg/kg,iv measured upto 24 hrs by LC-MS/MS analysis; assay type: ADME, organism-based, Canis lupus familiaris; design: dose 0.3 mg/kg, time < 24 hrs, route po; settings: in vivo
[25] = Dose normalized AUC(0 to Tlast) in athymic nude mouse xenografted with rat Rat1 cells expressing myr-p110alpha at 40 mg/kg, po measured after 8 days by LC-MS/MS analysis; assay type: ADME, organism-based; settings: in vivo, 192 h, time 8 day
[26] = Drug concentration in OF1 mouse brain at 1 mg/kg, iv measured at 1 hr post dose by LC-MS/MS analysis; assay type: ADME, organism-based; settings: in vivo
[27] = target: Phosphatidylinositol 4,5-bisphosphate 3-kinase catalytic subunit alpha isoform (Homo sapiens, UniProt P42336); assay: Inhibition of PI3Kalpha (unknown origin) using L-alpha-phosphatidylinositol as substrate in presence of ATP by Kinase Glo luminescence assay
[28] = Apparent permeability across basolateral to apical side in human Caco-2 cells at 10 uM measured after 120 mins by LC-MS/MS analysis; assay type: ADME, cell-based
[29] = Inhibition of wild type PI3K in human HCC1143 cells assessed as reduction in phosphorylation of AKT at Ser473 residue by Western blot analysis; assay type: cell-based
[30] = Dose normalized AUC in beagle dog at 0.1 mg/kg, iv measured upto 24 hrs by LC-MS/MS analysis; assay type: ADME, organism-based, Canis lupus familiaris; settings: in vivo
[31] = Tmax in beagle dog at 3 mg/kg, po measured upto 24 hrs by LC-MS/MS analysis; assay type: ADME, organism-based, Canis lupus familiaris; settings: in vivo
[32] = In vivo Inhibition of AKT phosphorylation at Ser473 residue in plasma of athymic nude mouse xenografted with rat Rat1 cells expressing myr-p110alpha; assay type: functional, organism-based
[33] = Dose normalized AUC in beagle dog at 3 mg/kg, po measured upto 24 hrs by LC-MS/MS analysis; assay type: ADME, organism-based, Canis lupus familiaris; settings: in vivo
Rat1 [34] = assay: Antitumor activity at rat Rat1 cells expressing myr-p110alpha xenografted in athymic nude mouse assessed as tumor growth inhibition at 20 mg/kg, po bid measured after 9 days; assay type: functional; settings: Rat1, 216 h, time 9 day
[35] = Dose normalized Cmax in Sprague-Dawley rat at 30 mg/kg, po measured upto 24 hrs by LC-MS/MS analysis; assay type: ADME, organism-based; settings: in vivo
[36] = Inhibition of PI3K PTEN mutant in human HCC38 cells assessed as reduction in phosphorylation of AKT at Ser473 residue by Western blot analysis; assay type: cell-based
Rat1 [37] = assay: Antitumor activity at rat Rat1 cells expressing myr-p110alpha xenografted in athymic nude mouse assessed as T/C ratio at 20 mg/kg, po qd measured after 14 to 22 days; assay type: functional; settings: time 14-22 day

Phosphatidylinositol 4,5-bisphosphate 3-kinase catalytic subunit alpha isoform, sequence (P42336 whole entry, canonical isoform): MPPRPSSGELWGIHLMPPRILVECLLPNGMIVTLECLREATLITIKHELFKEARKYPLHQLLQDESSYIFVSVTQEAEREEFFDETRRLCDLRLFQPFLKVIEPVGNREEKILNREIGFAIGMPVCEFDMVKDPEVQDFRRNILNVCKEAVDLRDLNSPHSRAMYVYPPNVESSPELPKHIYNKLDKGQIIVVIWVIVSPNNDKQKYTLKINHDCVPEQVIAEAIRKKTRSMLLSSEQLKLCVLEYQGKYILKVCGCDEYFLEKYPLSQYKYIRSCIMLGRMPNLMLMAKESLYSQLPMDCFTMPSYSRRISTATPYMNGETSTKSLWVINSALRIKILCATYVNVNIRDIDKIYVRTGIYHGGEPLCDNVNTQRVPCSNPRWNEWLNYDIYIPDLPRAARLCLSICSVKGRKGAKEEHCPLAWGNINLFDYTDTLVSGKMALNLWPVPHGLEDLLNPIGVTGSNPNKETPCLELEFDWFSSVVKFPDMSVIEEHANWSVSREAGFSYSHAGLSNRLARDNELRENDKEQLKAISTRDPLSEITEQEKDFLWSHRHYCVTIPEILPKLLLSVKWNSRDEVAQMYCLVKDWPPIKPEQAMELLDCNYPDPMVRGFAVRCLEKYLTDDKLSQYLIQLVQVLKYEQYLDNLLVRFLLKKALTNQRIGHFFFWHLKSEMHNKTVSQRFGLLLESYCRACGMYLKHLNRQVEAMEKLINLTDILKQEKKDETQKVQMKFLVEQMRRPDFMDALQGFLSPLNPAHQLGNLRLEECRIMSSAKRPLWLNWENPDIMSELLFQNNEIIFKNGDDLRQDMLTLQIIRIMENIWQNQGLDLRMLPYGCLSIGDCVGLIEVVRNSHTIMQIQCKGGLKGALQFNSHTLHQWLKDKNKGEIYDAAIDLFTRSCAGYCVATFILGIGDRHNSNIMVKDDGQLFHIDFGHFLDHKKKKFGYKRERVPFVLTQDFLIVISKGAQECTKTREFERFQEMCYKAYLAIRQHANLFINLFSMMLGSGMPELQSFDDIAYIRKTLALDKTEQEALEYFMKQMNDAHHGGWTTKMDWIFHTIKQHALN

Q: With `C[C@H]1OC(=O)N(c2nc(-c3cnc(N)nc3C(F)(F)F)cc(N3CCOCC3)n2)[C@H]1CO` as the compound, how does the IC50 [1] read?
A: Its IC50 is 204 nM.

Q: What about the Cmax/dose [2] of the same compound?
A: The Cmax/dose was 22 nM.

Q: What about the Cmax [3] of the same compound?
A: The Cmax was 422 nM.

Q: What about the Cmax/dose [4] of the same compound?
A: Its Cmax/dose is 309 nM.

Q: And the AUC/dose [5]?
A: The AUC/dose was 784 nM·h.

Q: And the IC50 [6]?
A: The IC50 was 30 nM.

Q: What about the Cmax [7] of the same compound?
A: The Cmax was 8950 nM.

Q: And the AUC(0-t) at 192 h [8]?
A: The AUC(0-t) at 192 h was 5.5 µM·h.

Q: And the Vdss [9]?
A: The Vdss was 4.4 L/kg.

Q: What about the AUC/dose [10] of the same compound?
A: The AUC/dose was 1709 nM·h.

Q: And the Tmax [11]?
A: Its Tmax is 2 h.

Q: What about the T/C (Rat1 [12]) of the same compound?
A: The T/C was -0.52.

Q: What about the Papp A→B at 2 h, up to 30 µM [13] of the same compound?
A: The Papp A→B at 2 h, up to 30 µM was 2.5 ×10⁻⁶ cm/s.

Q: What about the Tlast [14] of the same compound?
A: Its Tlast is 14 h.

Q: And the bioavailability [15]?
A: The bioavailability was 98%.

Q: And the Cmax [16]?
A: Its Cmax is 1240 nM.

Q: And the IC50 (cells)?
A: Its IC50 is 26 nM.

Q: And the Cmax/dose [17]?
A: Its Cmax/dose is 213 nM.

Q: What about the solubility at 2 h [18] of the same compound?
A: The solubility at 2 h was 51 µM (≈ 23.2 µg/mL).

Q: And the half-life [19]?
A: Its half-life is 12.9 h.

Q: What about the AUC(0-t) at 192 h [20] of the same compound?
A: The AUC(0-t) at 192 h was 54 µM·h.

Q: And the AUC/dose [21]?
A: The AUC/dose was 1738 nM·h.

Q: What about the solubility [22] of the same compound?
A: The solubility was 29 µM (≈ 13.2 µg/mL).

Q: And the Tlast [23]?
A: The Tlast was 14 h.

Q: And the Cmax [24]?
A: Its Cmax is 1120 nM.

Q: What about the AUC/dose [25] of the same compound?
A: The AUC/dose was 1.35 µM·h.

Q: And the Ct [26]?
A: The Ct was 31 pmol/g.

Q: What about the IC50 [27] of the same compound?
A: Its IC50 is 12 nM.

Q: And the Papp B→A at 2 h, 10 µM [28]?
A: The Papp B→A at 2 h, 10 µM was 19 ×10⁻⁶ cm/s.

Q: And the IC50 [29]?
A: The IC50 was 26 nM.

Q: And the AUC/dose [30]?
A: The AUC/dose was 11213 nM·h.

Q: What about the Tmax [31] of the same compound?
A: The Tmax was 2 h.

Q: And the IC80 [32]?
A: Its IC80 is 800 nM.

Q: What about the IC50 ([32]; Mus musculus) of the same compound?
A: The IC50 was 200 nM.

Q: What about the AUC/dose [33] of the same compound?
A: The AUC/dose was 11213 nM·h.

Q: What about the inhibition in vivo at 20 mg/kg (Rat1 [34]) of the same compound?
A: Its inhibition in vivo at 20 mg/kg is > 80%.

Q: And the Cmax/dose [35]?
A: Its Cmax/dose is 41 nM.

Q: What about the IC50 [36] of the same compound?
A: The IC50 was 88 nM.

Q: What about the T/C (Rat1 [37]) of the same compound?
A: The T/C was 0.04.
